Measured values from patent publication EP0596057B1, “QUINUCLIDINE DERIVATIVES AS SQUALENE SYNTHASE INHIBITORS” (priority 1992, dated 1993).

Experiments:
[1] = tested on: de novo hepatic cholesterol synthesis; assay: Acute rat cholesterol synthesis assay (de novo hepatic cholesterol synthesis from 14C-acetate); format: in vivo; conditions: female rats, [2-14C]-acetate ip 1 hour after compound, plasma sampled after a further hour, route not stated
Description: This is an acute in vivo test in the rat to measure de novo hepatic cholesterol synthesis from exogenously administered ^14C-acetate.
Female rats (35 - 55 g) are housed in reverse lighting conditions (red light from 0200h - 1400h) for a period of about 2 weeks prior to test. Animals are allowed free access to chow and drinking water throughout this period. At test, animals should weigh 125 - 150 g.
Test compounds may be administered by oral gavage, dissolved or suspended in 0.5% polysorbate, or by ip or iv dosing. Control animals receive vehicle alone. After 1 hour the rats are injected ip with 25µCi [2-^14C]-acetate (NEN DUPONT. specific activity, 45-60mCi/mmol NEC-085H, or AMERSHAM specific activity, 50-60mCi/mmol CFA 14) in a volume of 0.25 ml saline (100µCi/ml). After a further hour a blood sample was obtained from the abdominal vena cava under terminal halothane anaesthesia.
1ml of plasma is lyophilised and then saponified in 2ml ethanolic KOH (1 part 33% KOH, 9 parts ethanol) at 75°C for 2 hours. After addition of an equal quantity of water, non-saponifiable lipids are extracted with […] 5ml volumes of hexane. The hexane extracts are evaporated to dryness and the residues dissolved in ethanol to determine cholesterol specific radioactivity. ED50 values can be determined in the standard way.

Squalene synthase = target: T1, Squalene synthase (Rattus norvegicus, UniProt Q02769); assay: Inhibition of Squalene synthase (formation of squalene from tritiated farnesyl pyrophosphate, rat liver microsomal protein); format: biochemical; conditions: substrate 1-[3H]-farnesyl pyrophosphate 20µM, 37°C, 15 minutes, read-out: IC50 (concentration which results in a 50% inhibition of squalene production)
T1 construct: from tissue; host or cells: rat liver microsomes
T1 sequence (Q02769 1-416): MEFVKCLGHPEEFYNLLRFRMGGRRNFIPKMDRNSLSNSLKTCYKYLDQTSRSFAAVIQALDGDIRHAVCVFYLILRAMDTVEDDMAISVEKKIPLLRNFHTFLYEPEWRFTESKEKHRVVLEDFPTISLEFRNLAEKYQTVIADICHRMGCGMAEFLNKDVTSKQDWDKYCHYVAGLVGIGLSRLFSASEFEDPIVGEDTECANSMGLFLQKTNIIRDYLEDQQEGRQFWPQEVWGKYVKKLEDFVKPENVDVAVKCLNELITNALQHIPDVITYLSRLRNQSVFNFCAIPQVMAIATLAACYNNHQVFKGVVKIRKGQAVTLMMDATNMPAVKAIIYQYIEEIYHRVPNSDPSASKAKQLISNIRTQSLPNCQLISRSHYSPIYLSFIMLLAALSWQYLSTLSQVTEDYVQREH
Description: In this test, the ability of a compound to prevent the formation of squalene from a radioactive substrate (tritiated farnesyl pyrophosphate) is assessed.
The test compound is incubated at a concentration of 25 micromolar in 200µl of a buffered solution containing potassium phosphate (50mM), MgCl2 (4.95mM), KF (9.9mM), NADPH (0.9mM) and rat liver microsomal protein (20µg). Rat liver microsomes are prepared by the method described in published European Patent Application No. 324,421 and stored in liquid nitrogen prior to assay. Assay vials are kept at 37°C throughout the incubation.
The reaction is started with the addition of the substrate (1-[^3H]-farnesyl pyrophosphate), final concentration 20µM, and stopped after 15 minutes reaction time with the addition of 50µl of 4% KOH. The reaction products are separated from unreacted substrate after application to a C-18 octadecyl lccBond column (Analytichem Int product No. 617101). An aqueous fraction is eluted with 250µl of 0.1M KOH. Squalene is then eluted with 1.0 ml 10% ethylacetate in hexane and radioactivity determined. The difference in radioactivity in the presence and absence of the test compound is used to determine the level of inhibition. […]

SMILES	ED50 [1] [mg/kg]	IC50 (Squalene synthase) [µM]
OC1(c2ccc(C#Cc3ccccc3)cc2)CN2CCC1CC2 (centres unmarked) [Example 4, 3-(4-phenylethyn-2-ylphenyl)quinuclidin-3-ol]	29	–
OC1(c2ccc(COc3ccccc3)cc2)CN2CCC1CC2 (centres unmarked) [Example 2, 3-(4-phenoxymethylphenyl)-quinuclidin-3-ol]	–	0.03
